The values below are quoted from earlier work in patent US20210121528A1, “COMPOSITIONS FOR TREATING LUNG INFECTIONS BY AIRWAY ADMINISTRATION” (priority 2014, published 2021).

Assay in data set [1]: not given
This is another data set of the same source.

Assay in data set [2]: not given
The source holds these as a separate data set.

For data set [3] the following is noted: in vivo, po.
A further data set relates to macrophages. To be noted: in vitro incubation.
Data set [4] has as its system lethal pneumococcal pneumonia. To be noted: local delivery, mice.
Data set [5] concerns strains of organisms from the susceptible genera.
The test system of data set [6] is mammalian cells and organs.
The subject of a further data set is Prevotella. The note with it: anaerobic genus.
For data set [7], the system named is Staphylococcus, Streptococcus, Neisseria, Escherichia, Proteus (indole-negative), Serratia, Salmonella, Shigella, Pseudomonas, Haemophilus, Vibrio, and …. The note with it: aerobic genera.
The test system of data set [8] is Moraxella catarrhalis, Burkholderia cepacia, Mycobacterium spp. and Stenotrophomonas maltophilia.
Data set [9] concerns Veillonella and Fusobacterium. The note with it: anaerobic genera.
For data set [10] the following is noted: human, in vivo.
Data set [11] deals with methicillin-resistant Staphylococcus aureus and extended spectrum 13-lactamase (ESBL) enterobacteria. To be noted: resistant bacteria.
Data set [12] deals with polymorphonuclear leukocytes.

Read-outs that look alike come from different tables or passages of the source.

On to `C[C@@H]1O[C@@H]1P(=O)(O)O` [Fosfomycin disodium], for which the “irritation of the stomach / oral tolerability” value (in vivo, po) is reported as “irritant to the stomach”. Besides, in data set [1], the solubility in water result is given as “highly soluble”. Further, the “pH of 5% solution” value in [2] is recorded as 9.0-10.5.
Take `C[C@@H]1O[C@@H]1P(=O)(O)O.NC(CO)(CO)CO` [Fosfomycin trometamol]: the “irritation of the stomach / oral tolerability” value (oral) is “well tolerated”. In addition, the solubility in water result in [1] was “highly soluble”. In addition, the bioavailability result in data set [3] is recorded as “about 40%”. Further, in data set [2], the “pH of 5% solution” value is listed as 3.5-5.5.
Consider `C[C@@H]1O[C@@H]1P(=O)(O)O` [Fosfomycin calcium monohydrate], for which the “irritation of the stomach / oral tolerability” value (in vivo, po) is “less irritating to the stomach”. Moreover, in [1], the solubility in water result is on record as “sparingly soluble”. The “pH of 0.4% solution” value in data set [2] (0.4% solution) is listed as 8.1-9.6.
“GM-CSF: Monomeric protein of 127 amino-acid residues, colony-stimulating factor; SEQ ID NO: 2 mature human form”: the “time for transformation of a resting macrophage into a fully immunocompetent dendritic cell” value in the data set with macrophages was “approximately 10 days”. Further, the “protection from lethal pneumococcal pneumonia” value in data set [4] is “protects”.
On to `C[C@@H]1O[C@@H]1P(=O)(O)O` [fosfomycin, [(2R,3S)-3-methyloxiran-2-yl]phosphonic acid], for which the “synergistic effect, share of tested strains” value in data set [5] (early studies, various antibiotic combinations) is reported as 70-100%. For the same compound, the synergy rates in [5] (subsequent more extensive studies) was 36-74%. Moreover, in data set [6], the “toxicity to mammalian cells and organs” value is “remarkably non-toxic”. For the same compound, the bactericidal activity entry was “moderately active” in the data set on Prevotella; “active” in [7]; “less active” in [8]; “active” in data set [9]; “active” in [11]. Also, the eosinophilia in [10] is reported as 0.2%. Also, the transient rashes in data set [10] is reported as 0.3 % of cases. Besides, the “transiently raised liver enzymes” value in [10] was 0.3 % of cases. Besides, the “concentration in polymorphonuclear leukocytes relative to the extracellular fluid” value in [12] is listed as “twice”.
